Experimental data as given in ChEMBL document CHEMBL3611969, “The effect of complexation of 3-formylrifamycin SV macrocyclic ether derivatives with metal cations and small nitrogen-containing organic molecules on antibacterial activity against S. aureus and S. epidermidis” (Bioorg Med Chem Lett, 2015).
Values after ≈ are worked out from the molar mass of the structure shown.

Tests used:
Staphylococcus aureus [1] = assay: Antibacterial activity against Staphylococcus aureus ATCC 4163 after 18 hrs by serial microdilution method; assay type: functional; settings: ATCC 4163, 18 h
[2] = tested on: Staphylococcus epidermidis; assay: Antibacterial activity against Staphylococcus epidermidis ATCC 49134 after 18 hrs by serial microdilution method; assay type: functional; settings: ATCC 49134, 18 h
[3] = tested on: Staphylococcus epidermidis; assay: Antibacterial activity against Staphylococcus epidermidis ATCC 12228 after 18 hrs by serial microdilution method; assay type: functional; settings: ATCC 12228, 18 h
Staphylococcus aureus [4] = assay: Antibacterial activity against Staphylococcus aureus ATCC 25923 after 18 hrs by serial microdilution method; assay type: functional; settings: ATCC 25923, 18 h
Staphylococcus aureus [5] = assay: Antibacterial activity against Staphylococcus aureus ATCC 6538 after 18 hrs by serial microdilution method; assay type: functional; settings: ATCC 6538, 18 h
[6] = Solubility of the compound in water at pH 7; assay type: physicochemical
[7] = Octanol-water partition coefficient, log P of the compound by UV-vis method; assay type: physicochemical
[8] = tested on: Staphylococcus epidermidis; assay: Antibacterial activity against Staphylococcus epidermidis ATCC 12228 after 18 hrs by serial microdilution method in presence of Na+; assay type: functional; settings: ATCC 12228, 18 h
[9] = tested on: Staphylococcus epidermidis; assay: Antibacterial activity against Staphylococcus epidermidis ATCC 49134 after 18 hrs by serial microdilution method in presence of Li+; assay type: functional; settings: ATCC 49134, 18 h
Staphylococcus aureus [10] = assay: Antibacterial activity against Staphylococcus aureus ATCC 6538 after 18 hrs by serial microdilution method in presence of Na+; assay type: functional; settings: ATCC 6538, 18 h
Staphylococcus aureus [11] = assay: Antibacterial activity against Staphylococcus aureus ATCC 25923 after 18 hrs by serial microdilution method in presence of Li+; assay type: functional; settings: ATCC 25923, 18 h
[12] = tested on: Staphylococcus epidermidis; assay: Antibacterial activity against Staphylococcus epidermidis ATCC 12228 after 18 hrs by serial microdilution method in presence of Li+; assay type: functional; settings: ATCC 12228, 18 h
Staphylococcus aureus [13] = assay: Antibacterial activity against Staphylococcus aureus ATCC 25923 after 18 hrs by serial microdilution method in presence of Na+; assay type: functional; settings: ATCC 25923, 18 h
Staphylococcus aureus [14] = assay: Antibacterial activity against Staphylococcus aureus ATCC 4163 after 18 hrs by serial microdilution method in presence of Li+; assay type: functional; settings: ATCC 4163, 18 h
Staphylococcus aureus [15] = assay: Antibacterial activity against Staphylococcus aureus ATCC 6538 after 18 hrs by serial microdilution method in presence of Li+; assay type: functional; settings: ATCC 6538, 18 h
Staphylococcus aureus [16] = assay: Antibacterial activity against Staphylococcus aureus ATCC 4163 after 18 hrs by serial microdilution method in presence of Na+; assay type: functional; settings: ATCC 4163, 18 h
[17] = tested on: Staphylococcus epidermidis; assay: Antibacterial activity against Staphylococcus epidermidis ATCC 49134 after 18 hrs by serial microdilution method in presence of Na+; assay type: functional; settings: ATCC 49134, 18 h
[18] = Solubility of the compound in water at pH 7 in presence of Na+; assay type: physicochemical
[19] = Octanol-water partition coefficient, log P of the compound by UV-vis method in presence of Na+; assay type: physicochemical
[20] = Solubility of the compound in water at pH 7 in presence of Li+; assay type: physicochemical
[21] = Octanol-water partition coefficient, log P of the compound by UV-vis method in presence of Li+; assay type: physicochemical

Row | Compound | MIC (Staphylococcus aureus [1]) [µg/mL] | MIC [2] [µg/mL] | MIC [3] [µg/mL] | MIC (Staphylococcus aureus [4]) [µg/mL] | MIC (Staphylococcus aureus [5]) [µg/mL] | solubility [6] [µg/mL] | logP [7] | also measured
1 | NCc1ccc(F)cc1 | > 4 | > 4 | > 4 | > 4 | > 4 | – | – | –
2 | NCc1ccccc1Cl | > 4 | > 4 | > 4 | > 4 | > 4 | – | – | –
3 | CO[C@H]1/C=C/O[C@@]2(C)Oc3c(C)c(O)c4c(O)c(c(C=O)c(O)c4c3C2=O)NC(=O)/C(C)=C\C=C\[C@H](C)[C@H](O)[C@@H](C)[C@@H](O)[C@@H](C)[C@H](OC(C)=O)[C@@H]1C | 0.5 (≈ 0.689 µM) | 0.125 (≈ 0.172 µM) | 0.125 (≈ 0.172 µM) | 0.5 (≈ 0.689 µM) | 0.5 (≈ 0.689 µM) | – | – | –

Further lines, with some results ahead:

Row | MIC (Staphylococcus aureus [1]) [µg/mL] | MIC [2] [µg/mL] | MIC [3] [µg/mL] | MIC (Staphylococcus aureus [4]) [µg/mL] | MIC (Staphylococcus aureus [5]) [µg/mL] | solubility [6] [µg/mL] | logP [7] | Compound | also measured
4 | 0.5 (≈ 0.617 µM) | 0.25 (≈ 0.308 µM) | 0.25 (≈ 0.308 µM) | 0.5 (≈ 0.617 µM) | 0.5 (≈ 0.617 µM) | 500 (≈ 617 µM) | 2.05 | CO[C@H]1/C=C/O[C@@]2(C)Oc3c(C)c(O)c4c(O)c(c(CNC5CCOCC5)c(O)c4c3C2=O)NC(=O)/C(C)=C\C=C\[C@H](C)[C@H](O)[C@@H](C)[C@@H](O)[C@@H](C)[C@H](OC(C)=O)[C@@H]1C | –
5 | 0.5 (≈ 0.606 µM) | 0.25 (≈ 0.303 µM) | 0.25 (≈ 0.303 µM) | 0.5 (≈ 0.606 µM) | 0.5 (≈ 0.606 µM) | 250 (≈ 303 µM) | 2.37 | CO[C@H]1/C=C/O[C@@]2(C)Oc3c(C)c(O)c4c(O)c(c(CNCC5CCOCC5)c(O)c4c3C2=O)NC(=O)/C(C)=C\C=C\[C@H](C)[C@H](O)[C@@H](C)[C@@H](O)[C@@H](C)[C@H](OC(C)=O)[C@@H]1C | –
6 | 4 (≈ 4.17 µM) | 2 (≈ 2.09 µM) | 2 (≈ 2.09 µM) | > 4 | 2 (≈ 2.09 µM) | 120 (≈ 125 µM) | 1.18 | CO[C@H]1/C=C/O[C@@]2(C)Oc3c(C)c(O)c4c(O)c(c(CNCC5COCCOCCOCCOCCO5)c(O)c4c3C2=O)NC(=O)/C(C)=C\C=C\[C@H](C)[C@H](O)[C@@H](C)[C@@H](O)[C@@H](C)[C@H](OC(C)=O)[C@@H]1C (some centres undefined) | MIC [8]: 4 µg/mL; MIC [9]: 2 µg/mL; MIC (Staphylococcus aureus [10]): 2 µg/mL; MIC (Staphylococcus aureus [11]): > 4 µg/mL; MIC [12]: 2 µg/mL; MIC (Staphylococcus aureus [13]): > 4 µg/mL; MIC (Staphylococcus aureus [14]): 4 µg/mL; MIC (Staphylococcus aureus [15]): > 4 µg/mL; MIC (Staphylococcus aureus [16]): > 4 µg/mL; MIC [17]: 4 µg/mL
7 | 1 (≈ 0.997 µM) | 1 (≈ 0.997 µM) | 1 (≈ 0.997 µM) | 2 (≈ 1.99 µM) | 1 (≈ 0.997 µM) | 1000 (≈ 997 µM) | 1.76 | CO[C@H]1/C=C/O[C@@]2(C)Oc3c(C)c(O)c4c(O)c(c(CNCC5COCCOCCOCCOCCOCCO5)c(O)c4c3C2=O)NC(=O)/C(C)=C\C=C\[C@H](C)[C@H](O)[C@@H](C)[C@@H](O)[C@@H](C)[C@H](OC(C)=O)[C@@H]1C (some centres undefined) | MIC [8]: 1 µg/mL; MIC [9]: 1 µg/mL; solubility [18]: 600 µg/mL; logP [19]: 1.13; MIC (Staphylococcus aureus [10]): 2 µg/mL; MIC (Staphylococcus aureus [11]): 2 µg/mL; MIC [12]: 1 µg/mL; MIC (Staphylococcus aureus [13]): 2 µg/mL; solubility [20]: 670 µg/mL; MIC (Staphylococcus aureus [14]): 1 µg/mL; MIC (Staphylococcus aureus [15]): 1 µg/mL; logP [21]: 1.09; MIC (Staphylococcus aureus [16]): 2 µg/mL; MIC [17]: 1 µg/mL
8 | 4 (≈ 4.31 µM) | > 4 | > 4 | > 4 | 4 (≈ 4.31 µM) | 1600 (≈ 1720 µM) | -0.92 | CO[C@H]1/C=C/O[C@@]2(C)Oc3c(C)c(O)c4c(O)c(c(CN5CCOCCOCCOCCOCC5)c(O)c4c3C2=O)NC(=O)/C(C)=C\C=C\[C@H](C)[C@H](O)[C@@H](C)[C@@H](O)[C@@H](C)[C@H](OC(C)=O)[C@@H]1C | –
